Source: patent US11191273B2, “Methods of making pyranopyrans such as pyranopyran nitrile and methods of using pyranopyrans such as pyranopyran nitrile” (The United States of America, as Represented by the …, priority 2018, dated 2021)
In brackets after ≈: the same amount, converted by molar mass. Several values for one entry are separate records, joined by “and”; a condition that tells them apart may be missing. Equal values may be shown once. Read-outs that look alike come from different tables or passages of the source.

Assays:
[1] = system: Flavobacterium columnare ALM-00-173; assay: rapid 96-well microplate antibacterial bioassay against F. columnare; type: cell-based; settings: F. columnare ALM-00-173; for MIC (minimum inhibitory concentration) / MIC: 24 h; for MIC RDCF (relative-to-drug-control florfenicol): MIC divided by MIC of florfenicol; for IC50 / MIC: Flavobacterium columnare; for IC50: ALM00173, 24 h; for MIC: ALM00173, read-out: MIC (minimum inhibitory concentration)
Excerpt: An isolate of F. columnare [isolate ALM-00-173 (genomovar II)] was obtained from Dr. Covadonga Arias (School of Fisheries, Aquaculture and Aquatic Sciences, Auburn University, Auburn, Ala.). In order to assure purity, cultures of F. columnare ALM-00-173 were maintained separately on modified Shieh (MS) agar plates (pH 7.2-7.4) (Decostere, A., et al., Laboratory Animals, 36: 396-402 (2003)). Prior to conducting the bioassay, colonies of F. columnare ALM-00-173 were used to prepare the assay culture material by culturing in 75 mL of MS broth for 24 h at 29±1° C. at 150 rpm on a rotary shaker (model C24KC; New Brunswick Scientific, Edison, N.J.). After overnight incubation, a 0.5 McFarland standard of F. columnare ALM-00-173 culture material was prepared by transferring cells from the broth culture to fresh MS broth (Schrader, K. K., and M. D. Harries, Aquaculture Research, 37: 928-937 (2006)).
(§1) The pure test compounds (−)-diplopyrone and (−)-diplopyrone acetate were dissolved in technical grade 100% methanol while (−)-diplopyrone nitrile was dissolved in technical grade 100% acetone. The three test compounds were evaluated for antibacterial activity against F. columnare ALM-00-173 and E. ictaluri S02-1039 using a rapid 96-well microplate bioassay and following previous procedures (Schrader and Harries 2006). Florfenicol was included as a positive drug control. Control wells (no test material added) were also included in each assay. Final test concentrations of compounds and florfenicol were 0.01, 0.1, 1.0, 10.0, 100.0, and 1000.0 μM. Three replications were used for each dilution of each test compound and drug control, and final results were converted to units of mg/L to allow comparison with previous studies.
(§2) The 24-h 50% inhibition concentration (IC50) and minimum inhibitory concentration (MIC) were determined using sterile 96-well (flat bottom) polystyrene microplates (Corning Costar Corp., Acton, Mass.) for (−)-diplopyrone and (−)-diplopyrone acetate. In order to prevent solvent interaction with polystyrene, sterile 96-well (flat bottom) quartz microplates (Hellma Cells, Inc., Forest Hills, N.Y.) were used for (−)-diplopyrone nitrile. Initially, dissolved test compounds or florfenicol were micropippeted separately into individual microplate wells (10 μL/well), and the solvent was allowed to completely evaporate before 0.5 MacFarland bacterial culture was added to the microplate wells (200 μL/well). Microplates were incubated at 29±1° C. (VWR model 2005 incubator; Sheldon Manufacturing, Inc., Cornelius, Oreg.). A microplate photometer (SpectraCount, Packard Instrument Company, Meriden, Conn.) was used to measure the absorbance (630 nm) of the microplate wells at time 0 and 24-h. Two replicates of each microplate bioassay were made. Cell viability of F. columnare ALM-00-173 and E. ictaluri S02-1039 was determined at the completion of the growth bioassay for each test compound using the yellow dye 3(4,5-dimethylthiazol-2-yl)-2,5-diphenyl tetrazolium bromide (MTT) and previously outlined procedures (Schrader and Harries 2006). In addition, the minimum bactericidal concentration (MBC) was determined for very active compounds (Schrader and Harries 2006).
(§3) The means and standard errors of absorbance measurements were calculated, graphed, and compared to controls to determine the MIC, 24-h IC50, and MTT 24-h IC50 for each test compound. The 24-h IC50 and MIC results for each test compound were divided by the respective 24-h IC50 and MIC results obtained for the positive control florfenicol to determine the relative-to-drug-control florfenicol (RDCF) values.

[2] = system: Edwardsiella ictaluri S02-1039; assay: rapid 96-well microplate antibacterial bioassay against E. ictaluri; type: cell-based; settings: E. ictaluri S02-1039; for MIC (minimum inhibitory concentration) / MIC: 24 h; for MIC RDCF (relative-to-drug-control florfenicol): MIC divided by MIC of florfenicol; for IC50: S021039, 24 h; for MIC: read-out: MIC (minimum inhibitory concentration)
Excerpt: An isolate of E. ictaluri (isolate S02-1039) was obtained from a person (formerly with the College of Veterinary Medicine, Mississippi State University, Stoneville, Miss.). In order to assure purity, cultures of E. ictaluri S02-1039 were maintained on 3.8% Mueller-Hinton (MH) agar plates (pH 7.3) (Becton, Dickinson and Company, Sparks, Md.). Prior to conducting the bioassay, colonies of E. ictaluri S02-1039 were used to prepare assay culture material by aseptically transferring bacterial cells from colonies to 45 mL of 3.8% MH broth to form a bacterial cell density of 0.5 McFarland standard.
as §1, §2, §3

[3] = system: Lemna paucicostata (L.) Hegelm. (duckweed); settings: commercial herbicides; Michel et al. 2004; read-out: IC50 in the same duckweed bioassay; cited from earlier work
[4] = system: Lemna paucicostata (L.) Hegelm. (duckweed); assay: duckweed phytotoxicity bioassay (growth by frond area); type: in vivo; settings: for visual symptoms: 7 days of exposure, FIG. 7
Experimental: Pyranopyran (2), pyranopyran acetate (3), and pyranopyran nitrile (4) were also evaluated for phytotoxic activity using the aquatic plant Lemna paucicostata (L.) Hegelm. (duckweed). Dose-response curves from the aquatic plant Lemna paucicostata (L.) Hegelm. (duckweed) were obtained from experiments conducted. Duckweed was grown and treated as described by Michel et al. (Michel, A., et al., Environ. Toxicol. Chem., 23: 1074-1079 (2004)) with slight modifications. Duckweed stocks were cultivated from single L. paucicostata colonies (an aggregate of one mother and two daughter fronds to assure genetic uniformity) in Hoagland's No. 2 basal salt mixture with added iron (1000× Fe-EDTA solution, pH 5.5) in sterile trays. The plants were grown in a growth chamber under the following controlled conditions: continuous light at 26° C. and 120 μmol·s^−1·m^−2 photosynthetically active radiation. Hoagland solution was changed every two days. Bioassays were conducted in sterile […] (Falcon, Corning Life Science). Each well contained 5 mL with 1% EtOH with or without test compounds. Test compounds were dissolved in EtOH. A graphic template of the six-well plates was used for LemnaTec (LemnaTec, Würselen, Germany) image analysis software. Treatment plates, with two three-frond plants of the approximately same size per well, were incubated during 7 days of treatment. Each treatment was replicated three times. IC50 values (concentration of test compound that inhibits growth 50%) were determined with R statistics software. Effects on growth are evaluated by measuring area of the plant fronds with image analysis.

[5] = absorbance 630 nm, SE in parentheses
[6] = absorbance 630 nm, SE in parentheses, read-out: 24-h IC50 (50% inhibition concentration)
[7] = tetrazolium bromide dye MTT, read-out: MTT 24-h IC50 (cell viability)
[8] = Edwardsiella ictaluri, absorbance 630 nm, SE in parentheses, read-out: 24-h IC50 (50% inhibition concentration)
[9] = Edwardsiella ictaluri, tetrazolium bromide dye MTT, read-out: MTT 24-h IC50 (cell viability)
[10] = Edwardsiella ictaluri, S021039, SE in parentheses

| MIC (minimum inhibitory concentration) ([1]; SE in parentheses) | MIC RDCF (relative-to-drug-control florfenicol) [1] | 24-h IC50 (50% inhibition concentration) [1, 5] | MIC (minimum inhibitory concentration) ([2]; SE in parentheses) | MIC RDCF (relative-to-drug-control florfenicol) [2] | 24-h IC50 (50% inhibition concentration) [2, 5] | IC50 [1, 6] | MIC ([1]; SE in parentheses) | IC50 [2, 8] | MIC [2, 10] | Compound | also measured |
| --- | --- | --- | --- | --- | --- | --- | --- | --- | --- | --- | --- |
|  |  |  |  |  |  |  |  |  |  | C#C[C@@H]1C=C[C@H]2OC(=O)C=C[C@H]2O1 [compound 36, (4aR,6S,8aR)-6-Ethynyl-6,8a-dihydropyrano[3,2-b]pyran-2(4aH)-one] | melting point: 153 to 154 °C |
|  |  |  |  |  |  |  |  |  |  | CC(C)c1ccc(NC(=O)N(C)C)cc1 [isoproturon] | IC50 [3]: 350 nM |
|  | 297.9 (243.8) |  |  | 54.2 (0) |  | 54.6 µg/mL (≈ 280 µM) | 107 µg/mL (≈ 550 µM) | 20.5 µg/mL (≈ 105 µM) | 19.5 µg/mL (≈ 99.9 µM) | NC(=O)[C@@H]1C=C[C@H]2OC(=O)C=C[C@H]2O1 [Pyranopyran amide (29), (2S,4aR,8aR)-6-Oxo-2,4a,6,8a-tetrahydropyrano[3,2-b]pyran-2-carboxamide] | IC50 [1, 7]: 75.1 µg/mL (≈ 385 µM); IC50 [2, 9]: 16.6 µg/mL (≈ 85.1 µM); melting point: 160 to 164 °C |
|  | 505.6 (0) |  |  | 50.6 (0) |  | 76.4 µg/mL (≈ 419 µM) | 182 µg/mL (≈ 999 µM) | 48.2 µg/mL (≈ 265 µM) | 18.2 µg/mL (≈ 99.9 µM) | O=C1C=C[C@H]2O[C@H](CO)C=C[C@H]2O1 [Desmethylpyranopyran (28), (4aR,6S,8aR)-6-(Hydroxymethyl)-6,8a-dihydropyrano[3,2-b]pyran-2(4aH)-one] | IC50 [1, 7]: 79.2 µg/mL (≈ 435 µM); IC50 [2, 9]: 14.7 µg/mL (≈ 80.7 µM) |
|  |  |  |  |  |  |  |  |  |  | CCC(CC)Nc1c([N+](=O)[O-])cc(C)c(C)c1[N+](=O)[O-] [pendimethalin] | IC50 [3]: 380 nM |
|  |  |  |  |  |  |  |  |  |  | CCc1cnc(C2=NC(C)(C(C)C)C(=O)N2)c(C(=O)O)c1 (stereo not shown) [imazethapyr] | IC50 [3]: 930 nM |
| 17.7 (0) mg/L | 49.2 (0) |  | 0.002 (0) mg/L | 0.5 (0) |  | 7.5 ± 0.5 µg/mL (≈ 42.3 µM) | 17.7 µg/mL (≈ 99.9 µM) | 7.7 ± 1.2 µg/mL (≈ 43.5 µM) | 0.002 µg/mL (≈ 0.0113 µM) | N#C[C@@H]1C=C[C@H]2OC(=O)C=C[C@H]2O1 [Pyranopyran nitrile (4), (4aR,6S,8aR)-6-Cyano-6,8a-dihydropyrano-[3,2-b]pyran-2(4aH)-one] | IC50 [1, 7]: 16.8 ± 0.9 µg/mL (≈ 94.8 µM); MIC RDCF (relative-to-drug-control florfenicol) ([2]; listed as pyranopyran nitrile (4)): 0.5±0; IC50 [2, 9]: 64.6 µg/mL (≈ 365 µM); MBC ([2]; Edwardsiella ictaluri, S021039, bound is the highest test concentration, read-out: minimum bactericidal concentration (MBC)): > 177 µg/mL; IC50 ([4]; Lemna aequinoctialis, 144 h, Lemna paucicostata growth, frond area, FIG. 6, 6 days of exposure, read-out: IC50 (concentration that inhibits growth 50%)): < 1000 nM; visual symptoms ([4]; at 33 μM and higher): some of the plants had no chlorophyll and were necrotic; visual symptoms ([4]; at 100 μM): many of the plants were devoid of chlorophyll and necrotic; melting point: 162 to 164 °C |
|  |  | 0.54 mg/L |  |  | 0.14 mg/L | 0.69 µg/mL (≈ 1.93 µM) | 0.36 µg/mL (≈ 1 µM) | 0.18 µg/mL (≈ 0.502 µM) | 0.36 µg/mL (≈ 1 µM) | CS(=O)(=O)c1ccc([C@@H](O)[C@@H](CF)NC(=O)C(Cl)Cl)cc1 [Florfenicol, reference compound] |  |
| 196.0 (0) mg/L | 544.4 (0) | 76.4 (2.0) mg/L | 19.6±0 mg/L and 19.6 (0) mg/L | 54.4 (0) | 46.1 ± 1.0 mg/L |  |  |  |  | C[C@@H](O)[C@@H]1C=C[C@H]2OC(=O)C=C[C@H]2O1 [Pyranopyran (2), (4aR,6S,8aR)-6-((R)-1-Hydroxyethyl)-6,8a-dihydropyrano[3,2-b]pyran-2-(4aH)-one] | MTT 24-h IC50 (cell viability) ([1]; tetrazolium bromide dye MTT): 78.4 (0) mg/L; MTT 24-h IC50 (cell viability) ([2]; tetrazolium bromide dye MTT): 22.1 (9.3) mg/L |
| 224.0 (0) mg/L | 622.2 (0) | >224.0 mg/L | 22.4 (0) mg/L | 62.2 (0) | 39.2 (1.1) mg/L |  |  |  |  | CC(=O)OC[C@@H]1C=C[C@H]2OC(=O)C=C[C@H]2O1 [Desmethylpyranopyran acetate (27), (2S,4aR,8aR)-6-Oxo-2,4a,6,8a-tetrahydropyrano[3,2-b]pyran-2-yl]methyl acetate] | MTT 24-h IC50 (cell viability) ([1]; tetrazolium bromide dye MTT): >224.0 mg/L; MTT 24-h IC50 (cell viability) ([2]; tetrazolium bromide dye MTT): 35.8 (4.5) mg/L |

| Compound | MIC (minimum inhibitory concentration) ([1]; SE in parentheses) | MIC RDCF (relative-to-drug-control florfenicol) [1] | 24-h IC50 (50% inhibition concentration) [1, 5] | MIC (minimum inhibitory concentration) ([2]; SE in parentheses) | MIC RDCF (relative-to-drug-control florfenicol) [2] | 24-h IC50 (50% inhibition concentration) [2, 5] | IC50 [1, 6] | MIC ([1]; SE in parentheses) | IC50 [2, 8] | MIC [2, 10] | also measured |
| --- | --- | --- | --- | --- | --- | --- | --- | --- | --- | --- | --- |
| CC(=O)O[C@H](C)[C@@H]1C=C[C@H]2OC(=O)C=C[C@H]2O1 [Pyranopyran acetate (3), (4aR,6S,8aR)-6-((R)-1-Acetoxyethyl)-6,8a-dihydropyrano[3,2-b]pyran-2-(4aH)-one] | 238 mg/L and 238.0 (0) mg/L | 661.1 (0) | >238.0 mg/L | 238.0 (0) mg/L | 661.1 (0) | 165.4 (1.2) mg/L |  |  |  |  | MTT 24-h IC50 (cell viability) ([1]; tetrazolium bromide dye MTT): >238.0 mg/L; MTT 24-h IC50 (cell viability) ([2]; tetrazolium bromide dye MTT): 90.4 (4.8) mg/L |
